*: point of attachment. Palmitoyl = CCCCCCCCCCCCCCCC(=O)*
System: Collagen Synthesis Type I+III in Fibroblast Cell Cultures (ATCC CCL110)
Assay: Stimulation of collagen synthesis type I+III in fibroblast cell cultures, Sirius Red microassay
Assay type: cell-based
Settings: 24 hours incubation, control without active = 100%
Protocol: The collagen I and III content in fibroblasts is measured with the Sirius Red microassay. The quantitative determination of collagen is carried out after 24 hours of incubation with the corresponding oligopeptide derivatives. The extracellularly accumulated collagen is determined. Vitamin C and TGF-beta-1 are used as positive controls.
ATCC CCL110 fibroblasts are incubated in culture medium at a density of approx. 125,000 cells/well in 6-well cell culture plates for 2 days (37° C./5% CO2). Afterwards, the medium is discarded and washed twice with PBS, whereupon 1 ml of test medium with corresponding test substances is added. After incubation with test substance under culture conditions (37° C./5% CO2) for further 24 hours, the extracellular collagen is measured with the Sirius Red assay.
After the incubation period, the total volume of test medium (1 ml) is transferred into a flat-bottom 24-well plate and dried overnight at 55° C. The samples are fixed with 1 ml/well of Bouin's fluid for 1 hour at room temperature (RT). The fixing solution is discarded and the plates are washed 2-3 times with water. After drying of the plates, 1 ml of Sirius Red dye reagent is added.
The samples are shaken for 1 hour at RT on a microplate agitator at moderate intensity. Afterwards, the Sirius Red dye reagent is discarded and the plates are washed with 0.01N HCl. The tinted material is dissolved in 0.3 ml of 0.1N NaOH solution and shaken on a microplate agitator for 1 hour at RT.
200 μl of solution is transferred into a flat-bottom 96-well plate and the optical density is measured at 540 nm against 0.1N NaOH solution as the blank.
Culture medium: MEM+10% FCS+100 IU/ml penicillin+0.1 mg/ml streptomycin+1 mM non essential amino acids+1 mM Na-pyruvate+2 mM L-glutamine.
Test medium: DMEM without phenol red (AMIMED)+100 IU/ml penicillin+0.1 mg/ml streptomycin+80 μg/ml beta(β)-aminopropionitrile.
Vitamin C 100 mM (SIGMA A4034) is diluted to 50 μg/ml in the test medium.
Transforming growth factor TGFβ1 1 μg/ml (SIGMA T1654) is diluted to 0.1 ng/ml in the test medium.
The oligopeptide derivatives of the present invention are prepared in a regular concentration of 10 mM and diluted to 50 μM in the test medium.
Sirius Red F3BA dye reagent as the stock solution 1 mg/ml in saturated aqueous picric acid solution. Bouin's fluid: 15 ml of saturated aqueous picric acid solution+5 ml of formaldehyde+1 ml of acetic acid.

Compound	collagen type I + III after 24 hours, Extracellular (test substance 50 μM) [%]	other results
O=C1O[C@H]([C@@H](O)CO)C(O)=C1O [Vitamin C, reference compound]		collagen type I + III after 24 hours, Extracellular (Vitamin C positive control, diluted to 50 μg/ml in test medium): 128%
H-Dab-Ser-OH × 2 TFA	131	
H-Lys-Thr-Thr-Dab-Ser-OH × 3 AcOH	137	
H-Lys-Thr-allo-Thr-Lys-Ser-OH × 3 AcOH	134	
H-Lys-allo-Thr-allo-Thr-Lys-Ser-OH × 3 AcOH	139	
Lipoyl-Lys (Lipoyl)-Thr-Thr-Lys (Lipoyl)-Ser-OH	162	
Palm-Lys-Thr-Ser-Lys-Ser-OH (Palmitoyl-KTSKS-OH; SMILES CCCCCCCCCCCCCCCC(=O)N[C@@H](CCCCN)C(=O)N[C@H](C(=O)N[C@@H](CO)C(=O)N[C@@H](CCCCN)C(=O)N[C@@H](CO)C(=O)O)[C@@H](C)O)	128	
TGFβ1: Transforming growth factor TGFβ1 (SIGMA T1654), positive control [reference compound]		collagen type I + III after 24 hours, Extracellular (0.1 ng/ml): 115%

— patent US7671009B2, “Dermopharmaceutically and cosmetically active oligopeptides” (DSM IP Assets B.V., priority 2001, dated 2010)
